For data set [1], the system named is MCF7. The data set can be described thus: Antiproliferative activity against human MCF7 cells assessed as inhibition of cell proliferation measured by MTT assay. It counts as functional, cell-based.
Data set [2] deals with MDA-MB-231. Briefly: Antiproliferative activity against human MDA-MB-231 cells assessed as inhibition of cell proliferation measured by MTT assay. It counts as functional, cell-based.
Data set [3] concerns MIA PaCa-2. Briefly: Antiproliferative activity against human MIA PaCa-2 cells assessed as inhibition of cell proliferation measured by MTT assay. The format is functional, cell-based. On the technique in general: Formazan colour is commonly taken as a measure of viable cells.
Data set [4] relates to WiDr. The data set can be described thus: Antiproliferative activity against human WiDr cells assessed as inhibition of cell proliferation measured by MTT assay. The format is functional, cell-based.
Data set [5] deals with 4T1. The data set can be described thus: Antiproliferative activity against mouse 4T1 cells assessed as inhibition of cell proliferation measured by MTT assay. The format is functional, cell-based.
Data set [6] can be described thus: Antiproliferative activity against mouse 67NR cells assessed as inhibition of cell proliferation measured by MTT assay. The format is functional, cell-based.
The subject of data set [7] is MCF7. Briefly: Antiproliferative activity against human MCF7 cells assessed as inhibition of cell proliferation measured by SRB assay. It counts as functional, cell-based. Background: In SRB staining, fixed cells bind dye roughly in proportion to their protein.
Data set [8] relates to MDA-MB-231. Briefly: Antiproliferative activity against human MDA-MB-231 cells assessed as inhibition of cell proliferation measured by SRB assay. It counts as functional, cell-based.
Data set [9] relates to MIA PaCa-2. Briefly: Antiproliferative activity against human MIA PaCa-2 cells assessed as inhibition of cell proliferation measured by SRB assay. The format is functional, cell-based.
For data set [10], the system named is WiDr. The data set can be described thus: Antiproliferative activity against human WiDr cells assessed as inhibition of cell proliferation measured by SRB assay. It counts as functional, cell-based.
Data set [11] has as its system 4T1. Briefly: Antiproliferative activity against mouse 4T1 cells assessed as inhibition of cell proliferation measured by SRB assay. The format is functional, cell-based.
Data set [12] in a line: Antiproliferative activity against mouse 67NR cells assessed as inhibition of cell proliferation measured by SRB assay. It counts as functional, cell-based.
Data set [13] relates to 4T1. Briefly: Induction of mitochondrial stress in mouse 4T1 cells assessed as decrease in mitochondrial respiration in presence of oligomycin/FCCP/antimycin A/rotenone by seahorse XFe96 analyser based assay. It counts as functional, cell-based. The conditions noted are these: dose 0.625-10 µM.
Data set [14] deals with 4T1. The data set can be described thus: Induction of mitochondrial stress in mouse 4T1 cells assessed as proton leak across mitochondrial inner membrane in presence of oligomycin/FCCP/antimycin A/rotenone by seahorse XFe96 analyser based assay. It counts as functional, cell-based. The conditions noted are these: dose 0.625-10 µM.
For data set [15], the system named is 4T1. Briefly: Induction of mitochondrial stress in mouse 4T1 cells assessed as decrease in ATP production in presence of oligomycin/FCCP/antimycin A/rotenone by seahorse XFe96 analyser based assay. It counts as functional, cell-based. To be noted: dose 0.625-10 µM.
Data set [16] has as its system MDA-MB-231. Briefly: Induction of mitochondrial stress in human MDA-MB-231 cells assessed as decrease in mitochondrial respiration at 0.625 to 10 uM in presence of oligomycin/FCCP/antimycin A/rotenone by seahorse XFe96 analyser based assay. The format is functional, cell-based. The conditions noted are these: dose 0.625-10 µM.
Data set [17] concerns MDA-MB-231. The data set can be described thus: Induction of mitochondrial stress in human MDA-MB-231 cells assessed as proton leak across mitochondrial inner membrane in presence of oligomycin/FCCP/antimycin A/rotenone by seahorse XFe96 analyser based assay. To be noted: dose 0.3125-10 µM. The format is functional, cell-based.
The subject of data set [18] is MDA-MB-231. The data set can be described thus: Induction of mitochondrial stress in human MDA-MB-231 cells assessed as decrease in ATP production at 0.3125 to 10 uM in presence of oligomycin/FCCP/antimycin A/rotenone by seahorse XFe96 analyser based assay. The format is functional, cell-based. To be noted: dose 0.3125-10 µM.
Data set [19] is described as follows: Cytotoxicity against human HDFa cells assessed as inhibition of cell proliferation. The format is cell-based.
The test system of data set [20] is 4T1. Briefly: Induction of mitochondrial stress in mouse 4T1 cells assessed as effect on spare respiratory capacity at 5 to 10 uM in presence of oligomycin/FCCP/antimycin A/rotenone by seahorse XFe96 analyser based assay. The format is functional, cell-based. To be noted: dose 5-10 µM.
Data set [21] can be described thus: Toxicity against CD-1 mouse assessed as changes in grooming pattern at 10 mg/kg for 6 days per week measured after 14 days. It counts as organism-based. To be noted: in vivo, 336 h, time 14 day.
Data set [22] in a line: Toxicity against CD-1 mouse assessed as changes in body weight at 10 mg/kg for 6 days per week measured after 14 days. The format is organism-based. The conditions noted are these: in vivo.

Structures are written as SMILES. Active and inactive are the calls of the source. The rule behind the calls is not given here. Where only a bound is given, the exact number is not on record here.

As to `COC(=O)/C(=C/c1ccc(F)cc1)C[P+](c1ccc(OC)cc1)(c1ccc(OC)cc1)c1ccc(OC)cc1`, the IC50 in [1] was found to be 1420 nM; in data set [2] it was 7.41 µM; in data set [3], 1290 nM; in data set [4] it was 2140 nM; in data set [5], 4.57 µM; in [6] it was 5.14 µM.

For the compound `COC(=O)/C(=C/c1ccc(C)cc1)C[P+](c1ccc(OC)cc1)(c1ccc(OC)cc1)c1ccc(OC)cc1`, the IC50 in [1] is 7470 nM; in [2] it was 9.79 µM; in [3], 340 nM; in data set [4], 2580 nM; in [5], 5.23 µM; in [6] it was 2.78 µM.

Take `C=C(C[P+](c1ccc(C)cc1)(c1ccc(C)cc1)c1ccc(C)cc1)C(=O)OC`: the IC50 in [1] was 2430 nM; in data set [2], 3.79 µM; in data set [3] it was 2660 nM; in [4], 1480 nM; in data set [5], 1.78 µM; in data set [6] it was 5.34 µM.

In the case of `C=C(C[P+](c1ccccc1)(c1ccccc1)c1ccccc1)C(=O)N(C)C`, the IC50 in [1] was greater than 100000 nM; in data set [2], greater than 100 µM; in data set [3], greater than 100000 nM; in data set [4], 81200 nM; in data set [5] it was greater than 100 µM; in data set [6], greater than 100 µM.

Consider `C=C(C[P+](c1ccccc1)(c1ccccc1)c1ccccc1)C(=O)OC`, for which the IC50 in data set [1] amounted to 19900 nM; in data set [2], 28.9 µM; in data set [3], 27400 nM; in data set [4] it was 7740 nM; in [5], 14.8 µM; in data set [6], 58.4 µM.

Regarding `COc1ccc([P+](C/C(=C\c2ccc(Br)cc2)C(=O)OC(C)(C)C)(c2ccc(OC)cc2)c2ccc(OC)cc2)cc1`, the IC50 in data set [1] came out at 640 nM; in data set [2], 2.1 µM; in data set [3], 360 nM; in data set [4] it was 950 nM; in data set [5], 0.86 µM; in [6], 0.62 µM. Further, the IC50 in data set [7] was 63 nM; in data set [8], 580 nM; in data set [9] it was 200 nM; in [10], 140 nM; in data set [11] it was 500 nM; in [12], 470 nM. Further, the IC50 in data set [19] worked out at 5.5 µM. For the same compound, the Activity result in data set [13], in [14], in data set [15] and in data set [17] was “Dose-Dependent Effect” each time. Also, the outcome in data set [16], in [18] and in data set [20] was Active.

As to `COC(=O)/C(=C/c1ccccc1)C[P+](c1ccc(OC)cc1)(c1ccc(OC)cc1)c1ccc(OC)cc1`, the IC50 in [1] turned out to be 2670 nM; in [2], 9.27 µM; in data set [3], 4590 nM; in data set [4] it was 2740 nM; in data set [5] it was 7.2 µM; in data set [6], 4.87 µM.

Turning to `COC(=O)/C(=C/c1ccc(Cl)cc1)C[P+](c1ccc(OC)cc1)(c1ccc(OC)cc1)c1ccc(OC)cc1`, the IC50 in [1] amounted to 1370 nM; in data set [2] it was 3.01 µM; in [3], 590 nM; in data set [4] it was 1320 nM; in data set [5] it was 0.98 µM.

As to `COC(=O)/C(=C/c1ccc(OC)cc1)C[P+](c1ccc(OC)cc1)(c1ccc(OC)cc1)c1ccc(OC)cc1.[Br-]`, the IC50 in [1] is 1400 nM; in [2], 3.7 µM; in data set [3], 1370 nM; in data set [4], 1140 nM; in data set [5], 3.36 µM; in [6] it was 4.59 µM. Moreover, the IC50 in data set [7] stood at 170 nM; in [8], 2190 nM; in data set [9], 310 nM; in [10] it was 760 nM; in [11] it was 1830 nM; in data set [12], 2560 nM. In addition, the IC50 in data set [19] worked out at 23.9 µM. Moreover, the Activity result in data set [21] and in data set [22] was “Non-Toxic” throughout.

In the case of `C=C(C[P+](c1ccc(OC)cc1)(c1ccc(OC)cc1)c1ccc(OC)cc1)C(=O)OC(C)(C)C`, the IC50 is 980 nM in data set [1]; 2.69 µM in data set [2]; 1390 nM in [3]; 810 nM in data set [4]; 1.08 µM in [5]; 2.17 µM in data set [6].

Consider `COC(=O)/C(=C/c1ccc(C#N)cc1)C[P+](c1ccc(OC)cc1)(c1ccc(OC)cc1)c1ccc(OC)cc1`, for which the IC50 was 4490 nM in data set [1]; 12.5 µM in data set [2]; 7860 nM in [3]; 4870 nM in data set [4]; 20.4 µM in data set [5]; greater than 100 µM in data set [6].

As for `COC(=O)/C(=C/c1ccc([N+](=O)[O-])cc1)C[P+](c1ccc(OC)cc1)(c1ccc(OC)cc1)c1ccc(OC)cc1`, the IC50 in [1] worked out at 8830 nM; in data set [2] it was 8.29 µM; in data set [3] it was 5590 nM; in [4], 5950 nM; in [5], 4.73 µM; in data set [6], 28.7 µM.

As for `C=C(C[P+](c1ccc(OC)cc1)(c1ccc(OC)cc1)c1ccc(OC)cc1)C(=O)OC`, the IC50 in data set [1] came out at 2780 nM; in [2] it was 4.87 µM; in [3] it was 3600 nM; in data set [4], 1620 nM; in [5] it was 1.85 µM; in [6] it was 10.6 µM.

For the compound `C=C(C[P+](c1ccc(F)cc1)(c1ccc(F)cc1)c1ccc(F)cc1)C(=O)OC`, the IC50 turned out to be 47000 nM in [1]; 91.1 µM in data set [2]; 100000 nM in [3]; 19000 nM in [4]; 61.9 µM in data set [5]; 73.9 µM in [6].

As for `C=C(C[P+](c1ccccc1)(c1ccccc1)c1ccccc1)C(=O)OC(C)(C)C`, the IC50 in data set [1] stood at 1990 nM; in data set [2], 2.88 µM; in [3], 2870 nM; in data set [4], 2080 nM; in data set [5], 2.76 µM; in data set [6] it was 7.57 µM.

`COC(=O)/C(=C/c1ccc(Br)cc1)C[P+](c1ccc(OC)cc1)(c1ccc(OC)cc1)c1ccc(OC)cc1`: the IC50 turned out to be 1240 nM in data set [1]; 1.91 µM in [2]; 730 nM in data set [3]; 900 nM in data set [4]; 1.21 µM in data set [5]; 2.9 µM in [6]. Also, the IC50 in [7] came out at 170 nM; in data set [8] it was 940 nM; in data set [9] it was 290 nM; in data set [10], 810 nM; in [11], 1250 nM; in [12], 1780 nM.

The IC50 is the concentration that gives 50% inhibition.

The values are drawn from ChEMBL document CHEMBL4811282, “Synthesis and biological evaluation of novel 2-alkoxycarbonylallylester phosphonium derivatives as potential anticancer agents” (Bioorg Med Chem Lett, 2021).
